Test results reported in patent US5128346A, “Derivatives of D-glutamic acid and D-aspartic acid” (priority 1990, dated 1992).
Where two headings read alike, the source gives them in different places.

How the values were obtained:
[1] = molecular target: T1, Type-A CCK receptor (Cavia porcellus, UniProt Q63931); experiment: Radioligand binding, [^125 I]-BH-CCK8, Type-A CCK receptor (pancreatic membranes); parameters: species or system guinea pig
T1 construct: cortex and pancreas were removed and rinsed with ice cold saline; from tissue; host or cells: guinea pig pancreas, membranes
T1 sequence (Q63931 1-430): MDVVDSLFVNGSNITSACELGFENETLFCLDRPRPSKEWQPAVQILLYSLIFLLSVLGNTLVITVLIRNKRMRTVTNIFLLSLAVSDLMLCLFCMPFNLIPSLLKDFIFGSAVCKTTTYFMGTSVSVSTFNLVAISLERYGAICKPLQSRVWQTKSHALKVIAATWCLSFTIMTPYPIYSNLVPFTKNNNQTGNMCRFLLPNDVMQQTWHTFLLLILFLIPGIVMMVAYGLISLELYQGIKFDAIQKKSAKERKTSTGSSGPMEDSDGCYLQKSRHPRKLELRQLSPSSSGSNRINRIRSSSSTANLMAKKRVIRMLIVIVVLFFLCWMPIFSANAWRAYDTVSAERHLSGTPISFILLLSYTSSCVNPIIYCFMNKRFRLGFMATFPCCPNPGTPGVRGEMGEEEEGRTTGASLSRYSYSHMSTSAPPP
Excerpt: (§1) CCK8 [Asp-Tyr(SO3 H)-Met-Gly-Trp-Met-Asp-Phe-NH2 ] was purchased from Beckman Instruments (Palo Alto, Ca/) and Peptide International (Louisville, Ky.). Chymostatin, L-Try-Gly, puromycin, bestatin, EGTA, HEPES and BSA were purchased from Sigma Chemical Co. (St. Louis, Mo.). [^125 I]BH-CCK8 (specific activity, 2200 Ci/mmol) and Aquasol 2 scintillation cocktail were obtained from New England Nuclear (Boston, Ma.). Male guinea pigs, 250 to 325 g, were obtained from Scientific Small Animal Laboratory and Farm (Arlington Heights, Ill.). Collagenase, 300 units per mg, was purchased from Worthington (Frehold, N.J.)
(§2) 1. Guinea Pig Cerebral Cortical and Pancreatic Membrane Preparations
(§3) Cortical and pancreatic membrances were prepared as described (Lin and Miller; J. Pharmacol. Exp. Ther. 232, 775-780, 1985). In brief, cortex and pancreas were removed and rinsed with ice cold saline. Visible fat and connective tissues were removed from the pancreas. Tissues were weighed and homogenized separately in approximately 25 mL of ice-cold 50 mM Tris-HCl buffer, pH 7.4 at 4° C., with a Brinkman Polytron for 30 sec, setting 7. The homogenates were centrifuged for 10 min at 1075×g and pellets were discarded. The supernatants were saved and centrifuged at 38,730×g for 20 min. The resultant pellets were rehomogenized in 25 mL of 50 mM Tris-HCl buffer with a Teflon-glass homogenizer, 5 up and down strokes. The homogenates were centrifuged again at 38,730×g for 20 min. Pellets were then resuspended in 20 mM HEPES, containing 1 mM EGTA., 118 mM NaCl, 5 mM MgCl2, 100 microM bestatin, 3 microM phosphoramidon, pH 7.4 at 22° C., with a Teflon-glass homogenizer, 15 up and down strokes. Resuspension volume for the cortex was 15-18 mL per gm of original wet weight and 60 mL per gm for the pancreas.
(§4) ^125 I]Bolton-Hunter CCK8, and test compounds were diluted with HEPES-EGTA-salt buffer (see above) containing 0.5% bovine serum albumin (BSA). To 1 mL Skatron polystyrene tubes were added 25 microliters of test compounds, 25 miroliters of [^125 I]BH-CCK8, and 200 microliters of membrane suspension. The final BSA concentration was 0.1%. The cortical tissues were incubated at 30° C. for 150 min and pancreatic tissues were incubated at 37° C. for 30 min. Incubations were terminated by filtration using Skatron Cell Harvester and SS32 microfiber filter mats. The specific binding of [^125 I]BH-CCK8, defined as the difference between binding in the absence and presence of 1 microM CCK8, was 85 90% of pancreas. IC50 's were determined from the Hill analysis.

[2] = molecular target: T2, Type-B CCK receptor (Cavia porcellus, UniProt H0VZC5); experiment: Radioligand binding, [^125 I]-BH-CCK8, Type-B CCK receptor (cerebral cortical membranes); parameters: species or system guinea pig
T2 construct: cortex and pancreas were removed and rinsed with ice cold saline; from tissue; host or cells: guinea pig cerebral cortex, membranes
T2 sequence (H0VZC5 1-426): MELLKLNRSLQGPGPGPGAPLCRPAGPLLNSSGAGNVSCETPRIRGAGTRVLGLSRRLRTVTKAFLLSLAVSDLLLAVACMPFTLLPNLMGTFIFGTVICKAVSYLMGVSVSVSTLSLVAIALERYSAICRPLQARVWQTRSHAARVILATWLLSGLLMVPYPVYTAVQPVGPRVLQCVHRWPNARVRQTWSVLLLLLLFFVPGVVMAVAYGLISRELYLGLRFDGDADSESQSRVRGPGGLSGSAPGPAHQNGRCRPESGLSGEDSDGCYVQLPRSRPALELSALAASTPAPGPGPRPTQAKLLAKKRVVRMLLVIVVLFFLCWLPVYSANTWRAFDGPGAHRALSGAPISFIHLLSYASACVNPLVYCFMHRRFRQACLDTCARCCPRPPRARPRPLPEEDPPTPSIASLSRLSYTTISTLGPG
Excerpt: as §1, §2, §3
as §4, with “The specific binding of [^125 I]BH-CCK8, defined as the difference between binding in the absence and presence of 1 microM CCK8, was 85 90% of pancreas.” left out

[3] = guinea pig cerebral cortical membranes, 30° C., 150 min, IC50 from Hill analysis

Structure (SMILES) | IC50 [1] [nM] | IC50 [2] [nM] | IC50, [^125 I]-BH-CCK, Type-B CCK Receptor [2, 3] | IC50 ([1]; guinea pig pancreatic membranes, 37° C., 30 min, IC50 from Hill analysis) [nM] | IC50 [2, 3] [nM]
CCCCCN(CCCCC)C(=O)[C@@H](CCC(=O)OCc1ccccc1)NC(=O)c1cc2ccccc2[nH]1 [Example 3, N-(2'-Indolylcarbonyl)-(γ-benzyl ester)-R-Glu-di-n-pentylamide] | 240 | 3500 |  |  | 
CCCCCN(CCCCC)C(=O)[C@@H](CCC(=O)O)NC(=O)c1ccc2ccccc2n1 [Example 6, N-(2,-Quinolylcarbonyl)-R-Glu-N^α,N^α -di-n-pentylamide] | 62 | 4200 |  |  | 
CCCCCN(CCCCC)C(=O)[C@@H](CCC(=O)O)NC(=O)c1cnc2ccccc2n1 [Example 10, N-(2'-Quinoxalylcarbonyl)-R-Glu-N^α,N^α -di-n-pentylamide] | 34 | 6500 |  |  | 
CCCCCN(CCCCC)C(=O)[C@@H](CCC(=O)O)NC(=O)C1CNc2ccccc2N1 (stereo partly drawn) [Example 13, N-(1',2',3',4'-Tetrahydroquinoxalyl-2'-carbonyl)-R-Glu-N^α,N^α -di-n-pentylamide] | 92 | 5600 |  |  | 
CCCCCN(CCCCC)C(=O)[C@@H](CC(=O)OCc1ccccc1)NC(=O)c1cc2ccccc2[nH]1 [Example 18] | 820 | 2900 |  |  | 
CCCCCN(CCCCC)C(=O)[C@@H](CC(=O)O)NC(=O)c1ccc2ccccc2n1 [Example 21, N-(2'-Quinolylcarbonyl)-R-Asp-N^α,N^α -di-n-pentylamide] | 210 | 6600 |  |  | 
CCCCCN(CCCCC)C(=O)[C@@H](CCC(N)=O)NC(=O)c1cc2ccccc2[nH]1 [Example 22, N-(2'-Indolylcarbonyl)-R-Gln-N^α,N^α -di-n-pentylamide] | 97 | 6660 |  |  | 
O=C(CC[C@@H](NC(=O)c1cnc2ccccc2c1)C(=O)NCc1ccccc1)OCc1ccccc1 [Example 25, N-(3'-Quinolylcarbonyl)-(γ-benzyl ester)-R-Glu-benzylamide] | 310 | > 10000 |  |  | 
COC(=O)[C@@H](NC(=O)[C@@H](CCC(=O)OCc1ccccc1)NC(=O)c1cc2ccccc2[nH]1)c1ccccc1 [Example 36, Methyl N-(2'-Indolylcarbonyl)-(γ-benzylester)-R-Glutamyl-S-phenylglycinate] | 200 | 6300 |  |  | 
COC(=O)[C@@H](NC(=O)[C@@H](CCC(=O)O)NC(=O)c1cc2ccccc2[nH]1)c1ccccc1 [Example 37, Methyl N-(2'-Indolylcarbonyl)-R-Glutamyl-S-phenylglycinate] | 49 |  | 1-10,000 nM |  | 
O=C(O)CC[C@@H](NC(=O)c1cc2ccccc2[nH]1)C(=O)Nc1ccccc1-c1ccccc1 [Example 38, N-(2'-Indolylcarbonyl)-R-Glu-N^α -(2'-biphenylamide)] | 900 | 7100 |  |  | 
O=C(O)CC[C@@H](NC(=O)c1cc2ccccc2[nH]1)C(=O)NC12CC3CC(CC(C3)C1)C2 [Example 54, N-(2'-Indolylcarbonyl)-R-Glu-N^α -(1,-adamantyl)amide] | 660 | > 10000 |  |  | 
CCCCCN(CCCCC)C(=O)[C@@H](CCC(=O)O)NC(=O)c1cc2ccccc2n1C [Example 60, N-(N^i -Methyl-2,-Indolylcarbonyl)-R-Glu-N^α,N^α -dipentylamide] | 34 |  | 1-10,000 nM |  | 
CCOC(=O)CN(Cc1ccccc1)C(=O)[C@@H](CCC(=O)OCc1ccccc1)NC(=O)c1cnc2ccccc2c1 [Example 82, Ethyl N-(3,-Quinolylcarbonyl)-(γ-benzylester)-R-Glutamyl (N-benzyl)glycinate] | 250 | 10000 |  |  | 
CCOC(=O)CN(Cc1ccccc1)C(=O)[C@@H](CCC(=O)O)NC(=O)c1cnc2ccccc2c1 [Example 83, Ethyl N-(3'-Quinolylcarbonyl)-R-Glutamyl(N-benzyl)glycinate] | 44 | > 10000 |  |  | 
CCOC(=O)CN(Cc1ccccc1)C(=O)[C@@H](CCC(=O)OCc1ccccc1)NC(=O)c1cc(O)c2cccc(O)c2n1 [Example 84] | 28 | 620 |  |  | 
CCOC(=O)CN(Cc1ccccc1)C(=O)[C@@H](CCC(=O)O)NC(=O)c1cc(O)c2cccc(O)c2n1 [Example 85, Ethyl N-(4',8'-Dihydroxyquinolyl-2-carbonyl)-R-Glutamyl (N-benzyl)glycinate] | 100 | < 10000 |  |  | 
COC(=O)[C@@H](NC(=O)[C@@H](CCC(=O)O)NC(=O)c1ccc2ccccc2c1)c1ccccc1 [Example 89, Methyl N-(2 '-Naphthoyl)-R-Glutamyl-S-phenylglycinate] | 140 | > 10000 |  |  | 
COC(=O)[C@@H](NC(=O)[C@@H](CCC(=O)O)NC(=O)c1cnc2ccccc2c1)c1ccccc1 [Example 91, Methyl N-(3,-Quinolylcarbonyl)-R-Glutamyl-S-phenylglycinate] | 68 | > 10000 |  |  | 
COC(=O)[C@@H](NC(=O)[C@@H](CCC(=O)O)NC(=O)c1cc(O)c2cccc(O)c2n1)c1ccccc1 [Example 93, Methyl N-(4',8'-Dihydroxyquinolyl-2-carbonyl)-R-Glutamyl-S-phenylglycinate] | 100 | ≤ 10000 |  |  | 
CCOC(=O)CN(CC(=O)OCC)C(=O)[C@@H](CCC(=O)OCc1ccccc1)NC(=O)c1cnc2ccccc2c1 [Example 106, N-(3'-Quinolylcarbonyl)-(γ-Benzyl ester)-R-Glutamyl-bis(carboethoxymethyl)amide] | 93 | ~10000 |  |  | 
CCOC(=O)CN(CC(=O)OCC)C(=O)[C@@H](CCC(=O)O)NC(=O)c1cnc2ccccc2c1 [Example 107, N-(3,-Quinolylcarbonyl)-R-Glutamyl-bis(carboethoxymethyl)amide] | 110 | > 10000 |  |  | 
CCOC(=O)CN(CC(=O)OCC)C(=O)[C@@H](CCC(=O)O)NC(=O)c1cc(O)c2cccc(O)c2n1 [Example 109, N-(4',8'-Dihydroxyquinolyl-2-carbonyl)-R-Glutamyl-bis(carboethoxymethyl)amide] |  |  |  | 56 | 620
